Measurements as given in patent US11612586B2, “Indole regulation of antigen presenting cells” (THE TEXAS A&M UNIVERSITY SYSTEM, priority 2016, dated 2023).

Legend:
Salmonella Typhimurium = assay: Colonization of mice by Salmonella exposed to indole; assay type: in vivo; conditions: Salmonella exposed to indole compared to solvent-treated controls
NF-kB = NF-kB activity assay in DC2.4-NFkB-GLuc reporter cells; assay type: cell-based, murine; conditions: indole 24 hours, LPS 10 ug/ml
TNF = TNF production in DC2.4 cell line, intracellular staining, flow cytometry; assay type: cell-based, murine
Procedure: Intracellular staining was performed to assess TNF production.
FIG. 8 illustrates that indole synergizes with TGF-β to inhibit TNF production in DCs. Flow cytometric analysis was performed on DC2.4 cells treated with indole or DMF control for 24 hours in the presence or absence of TGF-β (10 ng/ml). […] Shaded gray areas represent unstimulated samples. Representative histograms from one of three independent experiments.
One important way that DCs shape local immune responses is through the production of cytokines. Cytokine production was addressed in indole-conditioned dendritic cells, first using the murine dendritic cell line, DC2.4. Cells pre-treated with physiologically relevant doses of indole produced less TNF upon stimulation with the bacterial surface component and TLR4 ligand, LPS. Production of TNF was reduced by 50% following treatment with 1 mM indole (FIG. 1). This response is biologically important as LPS serves as the prototypical endotoxin, present on the surface of virtually all gram-negative bacteria including gut-resident commensal strains.

IL-12 = IL-12 production in BMDMs, intracellular staining, flow cytometry; assay type: cell-based, mouse
Procedure: BMDMs were treated with indole or DMF control for 18 hours or 4 hours, followed by stimulation with LPS (2 ug/ml or 250 ng/ml) for 4 hours in the presence of Golgiplug. BMDMs were then stained for intracellular TNF or IL-12 and analyzed by flow cytometry.
First, pro-inflammatory cytokine production in macrophages was investigated. […] In the DC study described herein, DCs were typically conditioned with indole during their development from bone marrow precursors in order to mimic the proximity of DC progenitor cells to indole in the intestinal microenvironment during development. […] BMDMs were treated for 18 hours with indole, followed by a 4 hour stimulation with either a very high (2 ug/ml) or low (250 ng/ml) dose of LPS.
Additionally, to determine if recently arrived macrophage precursors might also be affected, BMDMs were next treated for just 4 hours with indole, followed by a […] stimulation with the same LPS concentrations.
To address the question of indole and AhR dependence in macrophages, experiments using BMDMs derived from AhR-knockout mice were run alongside wild-type littermate controls. Specifically, flow cytometric analysis of BMDMs was performed on WT or AhR-KO mice and treated with indole or DMF control for 18 hours. BMDMs were stimulated for 4 hours with LPS (50 ng/ml) in the presence of Golgiplug, then stained for intracellular TNF (left panels) and IL-12 (right panels).
The inventors performed a series of assays where bone marrow derived macrophages (BMDMs), bone marrow derived dendritic cells (BMDCs), and splenic dendritic cells (splenic DCs), were exposed to a series of TDMMs, including indole, indole-3-acetate (I3AT), 5-hydroxyindole (5HI), and indole-3-pyruvate (I3P), as well as indole-3-carbinol (I3C; a plant derived compound) to be used for a positive control (1 mM for 24 hours). The BMDMs and BMDCs were stimulated with LPS for 4 hours and assayed at day 7 for expression of various pro-inflammatory cytokines. In a similar assay, the BMDMs and BMDCs were stimulated with LPS or CpG, respectively, for 15 minutes and assayed for pAKT and pERK signaling, which is a reflection of pro-inflammatory response.
Bone marrow was harvested as described above and cultured at a density of 1×10^6 cells in 10 ml complete media supplemented with 10 ng/ml M-CSF (Peprotech) in 100 mm×15 mm petri dishes. Media with cytokine was replenished on day 3. Adherent and semi-adherent cells were recovered on day 7, plated, and treated with indole prior to downstream experiments.

[1] = test system: reactive oxygen species (ROS); assay: Reactive oxygen species production in DC2.4 and BMDC
MHC-II and CD86 = conditions: BMDC, indole from day 0, 3, or 6, LPS stimulation

Which results are given for `c1ccc2[nH]ccc2c1` [Indole, indole]?
competitiveness of Salmonella in colonizing mice (Salmonella Typhimurium): less competitive; inhibition of NF-kB signaling (NF-kB): approximately one-third; reduction of TNF production (TNF; DC2.4, 1 mM indole pre-treatment, LPS stimulation): 50%; inhibition of TNF production with concurrent TGF-β treatment (TNF; DC2.4, indole 24 hours with TGF-β (10 ng/ml), LPS 1 ug/ml 4 hours): marked synergistic effect; reduction of IL-12 production (IL-12; BMDMs from WT or AhR-KO mice, 1 mM indole 18 hours, LPS 50 ng/ml 4 hours): approximately 2 fold; IL-12 (IL-12; BMDMs, 1 mM TDMM 24 hours, LPS 1 ug/ml 4 hours): ↓↓↓; inhibition of IL-12 production (IL-12; BMDMs, 1 mM indole 18 hours, LPS 2 ug/ml or 250 ng/ml 4 hours): ~2 fold; secretion of reactive oxygen species (ROS) [1]: intact; DC maturation (MHC-II and CD86 expression) (MHC-II and CD86): did not alter DC maturation
